From the supplement of paper PMC11061612

Columns and labels:
Assay in all cases: combination Emax (second highest fraction inhibited in the dose matrix, 72 h); higher = more inhibition; extreme values may be limits of the assay
[1] = tested on: LNCaP-Clone-FGC (Prostate Carcinoma)
Summary of the method: (§1)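 Cell lines in DMEM/F12 or RPMI with 10% FBS were plated in 1536-well plates, held 24 hours at 37°C, 5% CO2, then given two-drug dose matrices for 72 hours (DMSO typically 0.2%). Viability was read by CellTiter-Glo 2.0 luminescence and scaled as inhibition from 0 (vehicle wells) to 1 (blank wells). Combination Emax is the second-highest inhibition in the matrix; Bliss excess is observed combination effect minus expected EA + EB − EA·EB, EA and EB being single-agent effects.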

[2] = tested on: Daoy (Other Solid Carcinomas)
Summary of the method: as §1

[3] = tested on: TCCSUP (Bladder Carcinoma)
Summary of the method: as §1

KELLY (Neuroblastoma) = tested on: KELLY (Neuroblastoma)
Summary of the method: as §1

[4] = tested on: HuP-T4 (Pancreatic Carcinoma)
Summary of the method: as §1

[5] = tested on: MFE-296 (Endometrial Carcinoma)
Summary of the method: as §1

[6] = tested on: KYSE-520 (Esophageal Squamous Cell Carcinoma)
Summary of the method: as §1

HOS (Osteosarcoma) = tested on: HOS (Osteosarcoma)
Summary of the method: as §1

ES4 (Ewing's Sarcoma) = tested on: ES4 (Ewing's Sarcoma)
Summary of the method: as §1

[7] = tested on: LU-135 (Small Cell Lung Carcinoma)
Summary of the method: as §1

[8] = tested on: TE-9 (Esophageal Squamous Cell Carcinoma)
Summary of the method: as §1

[9] = tested on: OVCA420 (Ovarian Carcinoma)
Summary of the method: as §1

[10] = tested on: Calu-3 (Lung Adenocarcinoma)
Summary of the method: as §1

[11] = tested on: CaR-1 (Colorectal Carcinoma)
Summary of the method: as §1

[12] = tested on: DEL (T-Cell Non-Hodgkin's Lymphoma)
Summary of the method: as §1

[13] = tested on: RC-K8 (B-Cell Non-Hodgkin's Lymphoma)
Summary of the method: as §1

[14] = tested on: ME-1 (Acute Myeloid Leukemia)
Summary of the method: as §1

[15] = tested on: NCI-H2085 (Non-Small Cell Lung Carcinoma)
Summary of the method: as §1

[16] = tested on: TE-15 (Esophageal Squamous Cell Carcinoma)
Summary of the method: as §1

[17] = tested on: CCRF-CEM (T-Lymphoblastic Leukemia)
Summary of the method: as §1

Compound	combination Emax [1]	combination Emax [2]	combination Emax [3]	combination Emax (KELLY (Neuroblastoma))	combination Emax [4]	combination Emax [5]	combination Emax [6]	combination Emax (HOS (Osteosarcoma))	combination Emax (ES4 (Ewing's Sarcoma))	combination Emax [7]	combination Emax [8]	combination Emax [9]	combination Emax [10]	combination Emax [11]	combination Emax [12]	combination Emax [13]	combination Emax [14]	combination Emax [15]	combination Emax [16]	combination Emax [17]
CC1(C)CCC(CN2CCN(c3ccc(C(=O)NS(=O)(=O)c4ccc(NCC5CCOCC5)c([N+](=O)[O-])c4)c(Oc4cnc5[nH]ccc5c4)c3)CC2)=C(c2ccc(Cl)cc2)C1 [Venetoclax] + C[C@@H]1COCCN1C2=NC(=NC(=C2)C3(CC3)[S@](=N)(=O)C)C4=C5C=CNC5=NC=C4 [AZD6738] (first compound max 1 µM, 7x7, partner max 10 µM)	0.684	0.9	0.638	0.998	0.394	0.387	0.575	0.642	0.793	0.761	0.274	0.493	0.265	0.484	0.996	0.837	1	0.534	0.796	1
CN(CCO)CC[C@H](CSc1ccccc1)Nc1ccc(S(=O)(=O)NC(=O)c2ccc(N3CCC([C@@H](O)c4ccccc4-c4ccc(Cl)cc4)CC3)cc2)cc1S(=O)(=O)C(F)(F)F [AZD4320] + Cc1cc2ncnn2cc1Nc1ncc2c(n1)n(C1CCOCC1)c(=O)n2C [AZD7648] (first compound max 1 µM, 7x7, partner max 10 µM)	0.415	0.152	0.268	0.493	0.156	0.124	0.23	0.134	0.619	1	0.246	0.157	0.182	0.125	0.315	0.596	1	0.177	0.0708	1
COc1cc2ncnc(Nc3ccc(F)c(Cl)c3)c2cc1OCCCN1CCOCC1 [Gefitinib] + CC(C)n1c(=O)n(C)c2cnc3cc(F)c(-c4ccc(OCCCN5CCCCC5)nc4)cc3c21 [AZD1390] (first compound max 10 µM, 7x7, partner max 0.3 µM)	0.089	0.0924	0.114	0.189	0.178	0.0821	0.556	0.0904	0.3	0.129	0.0944	0.646	0.738	0.227	0.187	0.105	0.199	0.225	0.762	0.054
C=CCn1c(=O)c2cnc(Nc3ccc(N4CCN(C)CC4)cc3)nc2n1-c1cccc(C(C)(C)O)n1 [AZD1775] + C1CN(CCC1(C(=O)N[C@@H](CCO)C2=CC=C(C=C2)Cl)N)C3=NC=NC4=C3C=CN4 [Capivasertib] (first compound max 3 µM, partner max 3 µM)	1	0.999	0.787	1	0.691	0.561	0.598	0.831	0.521	0.669	0.816	0.59	0.466	0.69	1	0.652	0.685	0.631	0.724	1
CN(CCO)CC[C@H](CSc1ccccc1)Nc1ccc(S(=O)(=O)NC(=O)c2ccc(N3CCC([C@@H](O)c4ccccc4-c4ccc(Cl)cc4)CC3)cc2)cc1S(=O)(=O)C(F)(F)F [AZD4320] + C[C@@H](Nc1cc(F)cc(F)c1)c1cc(C(=O)N(C)C)cc2c(=O)cc(N3CCOCC3)oc12 [AZD8186] (first compound max 1 µM, 7x7, partner max 3 µM)	0.912	0.837	0.417	0.7	0.515	0.306	0.34	0.37	0.849	1	0.312	0.261	0.242	0.246	0.888	0.999	1	0.584	0.551	1
CC1(C)CCC(CN2CCN(c3ccc(C(=O)NS(=O)(=O)c4ccc(NCC5CCOCC5)c([N+](=O)[O-])c4)c(Oc4cnc5[nH]ccc5c4)c3)CC2)=C(c2ccc(Cl)cc2)C1 [Venetoclax] + Cn1cnc2c(F)c(Nc3ccc(Br)cc3Cl)c(C(=O)NOCCO)cc21 [Selumetinib] (first compound max 1 µM, 7x7, partner max 3 µM)	0.187	0.0883	0.136	1	0.352	0.0803	0.299	0.089	0.0348	0.332	0.0846	0.403	0.071	0.103	0.382	0.227	1	0.23	0.263	0.926
